This passage reports IC50 results from US11180503B2, “[1,2,4]Triazolo[4,3-A]pyrazin-6(5H)-one derivatives” (Eli Lilly and Company, priority 2017, dated 2021).

For orientation: IC50 means the midpoint of a concentration-inhibition curve.

What all share (format): biochemical
Test [1] concerns the target human PDE1A (Homo sapiens (Human), UniProt P54750). Nature of the test: Ca2+-calmodulin dependent PDE enzyme assay (radiometric SPA, [3H]cAMP). To be noted: human PDE1A 0.25 nM, [3H]cAMP 47 nM; read-out: PDE 1A IC50. The text has this:
(§1) The nucleotide sequences encoding full-length human PDE1A (NP_001003683.1) and PDE1C (NP_005011.1) are inserted into pFastBac1 (Invitrogen) vector with an N-terminal HIS tag. The nucleotide sequences encoding full-length human PDE4D (NP_006194.2) and catalytic domain (residue 641-1141) of PDE3A (NP_000912.3) are inserted into pFastBac1 (Invitrogen) vector with a C-terminal HIS tag. The nucleotide sequences encoding full-length human PDE6A (NP_000431.2) and PDE6B (AAH00249.1) are inserted into pFastBacDual (Invitrogen) vector with an N-terminal HIS tag and N-terminal Flag tag, respectively, for production of PDE6A/6B dimer. Baculovirus generation and protein expression in Sf9 cells are carried out according to the protocol of Bac-to-Bac Baculovirus Expression system (Invitrogen). The nucleotide sequence encoding full-length human PDE1B (NP_000915.1) is inserted into pIEX4 (Novagen) with a C-terminal HIS tag, and both protein productions in Sf9 cells are carried out according to the vendor's protocol (Novagen). The His tagged PDE proteins are purified using Ni-NTA agarose (Qiagen) followed by size exclusion chromatography on a SUPERDEX® 200 column (GE Healthcare) in storage buffer (20 mM Tris-HCl, pH7.5, 150 mM NaCl, 10% Glycerol). The Flag tagged PDE proteins including PDE6A/6B are purified using anti-Flag M2-agarose (Sigma), after purification through NiNTA column chromatography and eluted in storage buffer (50 mM Tris-HCl, pH7.5, 150 mM NaCl, 10% Glycerol, 0.1 mg/ml Flag peptide). All purified proteins are stored at −80° C. in small aliquots.
(§2) All 3′,5′ cyclic nucleotide phosphodiesterase (PDE) enzyme activities are measured with a radiometric enzyme assay based on SPA detection system (scintillation proximity assay). Compounds to be tested are diluted in pure dimethyl sulfoxide (DMSO) using ten point concentration response curves. Maximal compound concentration in the reaction mixture is either 10 or 100 μM. Compounds at the appropriate concentration are pre-incubated with either of the PDE enzymes for 30 minutes before the reaction is started by the addition of substrate. Reactions are allowed to proceed for 60 minutes at room temperature. Next, reactions are stopped by addition of SPA beads. Samples are read 12 hours later in a MICROBETA™ TRILUX® Counter. “IC50” refers to the concentration of the compound that produces 50% of the maximal inhibitory response possible for that compound. IC50 values are calculated by plotting the normalized data vs. log [compound] and fitting the data using a four parameter logistic equation.
(§3) PDE1B, PDE1A, and PDE1C are cloned and purified following standard protein generation procedures. The assay buffer is prepared to give a final concentration in the assay of 50 mM Tris-HCl, 50 mM MgCl2, 4 mM CaCl2, 0.1% Bovine serum albumin and 6 U/ml Calmodulin in water, at pH 7.5. The final enzyme concentration is 0.25, 0.074 and 0.0012 nM, for PDE1A, PDE1B and PDE1C respectively. The reactions are started by addition of the substrate, [^3H]cAMP, to give a final concentration of 47 nM.

Test [2] addresses human PDE1B (Homo sapiens (Human), UniProt Q01064). The test is described as above. The note with it: human PDE1B 0.074 nM, [3H]cAMP 47 nM; read-out: PDE 1B IC50.
Text: as §1, §2, §3

Test [3] concerns the target human PDE1C (Homo sapiens (Human), UniProt Q14123). The description is as above. To be noted: human PDE1C 0.0012 nM, [3H]cAMP 47 nM; read-out: PDE 1C IC50.
Text: as §1, §2, §3

Test [4] has as its target human PDE3A (catalytic domain) (Homo sapiens (Human), UniProt Q14432). Description: PDE enzyme assay using [3H]cAMP as substrate (radiometric SPA). The note with it: human PDE3A catalytic domain 0.008 nM, [3H]cAMP 47 nM.
Text: as §1, §2
(§4) The following phosphodiesterase activities are measured using [^3H]cAMP as reaction substrate: human PDE3A (catalytic domain) and human PDE4D. Both enzymes are cloned and purified following standard procedures. The assay buffer is prepared to give a final concentration in the assay of 50 mM Tris-HCl, 8.3 mM MgCl2, 1.7 mM ethylenediaminetetraacetic acid (EDTA) and 0.1% Bovine serum albumin at pH 7.5. Final enzyme concentrations are 0.008 and 0.021 nM for PDE3A and PDE4D, respectively. Reactions are started by addition of the substrate, [^3H]cAMP, to give a final concentration of 47 nM.

The target in test [5] is human PDE4D (Homo sapiens (Human), UniProt Q08499). Described as above. The note with it: human PDE4D 0.021 nM, [3H]cAMP 47 nM; read-out: PDE 4D IC50.
Text: as §1, §2, §4

Test [6] concerns the target human PDE6A/6B (Homo sapiens (Human), UniProt P16499+P35913). Description: PDE enzyme assay using [3H]cGMP as substrate (radiometric SPA). To be noted: human PDE6A/6B dimer 5 nM, [3H]cGMP 80 nM; read-out: PDE 6AB IC50.
Text: as §1, §2
The following phosphodiesterase activities are measured using [^3H]cGMP as reaction substrate: human PDE6A/6B. The catalytic active form of human PDE6 is a dimer composed of a α (human PDE6A) and β subunits (human PDE6B). The dimer of human PDE6A/6B is produced by the coexpression and purification strategy, using two purification steps, i.e., NiNTA and anti-FLAG Sepharose chromatography. The assay buffer is prepared to give a final concentration in the assay of 50 mM Tris-HCl, 8.3 mM MgCl2, 1.7 mM EDTA and 0.1% Bovine serum albumin at pH 7.5. The final enzyme concentration is 5 nM. The reactions are started by addition of the substrate, [^3H]cGMP, to give a final concentration of 80 nM.

Sequence of human PDE4D (Q08499 other isoform, or with tags, fused parts or gaps): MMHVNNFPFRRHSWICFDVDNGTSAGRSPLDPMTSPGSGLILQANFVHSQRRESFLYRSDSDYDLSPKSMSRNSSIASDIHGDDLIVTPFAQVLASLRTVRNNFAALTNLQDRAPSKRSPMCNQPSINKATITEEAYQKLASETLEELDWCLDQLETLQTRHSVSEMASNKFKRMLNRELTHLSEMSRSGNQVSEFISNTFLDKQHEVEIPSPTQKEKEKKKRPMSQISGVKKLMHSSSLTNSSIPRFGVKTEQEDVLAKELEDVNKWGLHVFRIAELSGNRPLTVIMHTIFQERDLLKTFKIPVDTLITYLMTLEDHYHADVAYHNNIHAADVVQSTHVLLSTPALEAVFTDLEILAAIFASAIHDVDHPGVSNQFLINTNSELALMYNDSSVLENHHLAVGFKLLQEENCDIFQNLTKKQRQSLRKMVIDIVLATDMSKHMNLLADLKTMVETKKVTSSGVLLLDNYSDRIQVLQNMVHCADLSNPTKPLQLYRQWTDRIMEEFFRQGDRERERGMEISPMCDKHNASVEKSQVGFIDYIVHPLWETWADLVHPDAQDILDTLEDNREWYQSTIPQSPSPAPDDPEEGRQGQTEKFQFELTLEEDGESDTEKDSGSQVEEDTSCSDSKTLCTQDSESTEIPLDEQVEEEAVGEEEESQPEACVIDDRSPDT
Sequence of human PDE6A/6B (P16499 whole entry, change not shown): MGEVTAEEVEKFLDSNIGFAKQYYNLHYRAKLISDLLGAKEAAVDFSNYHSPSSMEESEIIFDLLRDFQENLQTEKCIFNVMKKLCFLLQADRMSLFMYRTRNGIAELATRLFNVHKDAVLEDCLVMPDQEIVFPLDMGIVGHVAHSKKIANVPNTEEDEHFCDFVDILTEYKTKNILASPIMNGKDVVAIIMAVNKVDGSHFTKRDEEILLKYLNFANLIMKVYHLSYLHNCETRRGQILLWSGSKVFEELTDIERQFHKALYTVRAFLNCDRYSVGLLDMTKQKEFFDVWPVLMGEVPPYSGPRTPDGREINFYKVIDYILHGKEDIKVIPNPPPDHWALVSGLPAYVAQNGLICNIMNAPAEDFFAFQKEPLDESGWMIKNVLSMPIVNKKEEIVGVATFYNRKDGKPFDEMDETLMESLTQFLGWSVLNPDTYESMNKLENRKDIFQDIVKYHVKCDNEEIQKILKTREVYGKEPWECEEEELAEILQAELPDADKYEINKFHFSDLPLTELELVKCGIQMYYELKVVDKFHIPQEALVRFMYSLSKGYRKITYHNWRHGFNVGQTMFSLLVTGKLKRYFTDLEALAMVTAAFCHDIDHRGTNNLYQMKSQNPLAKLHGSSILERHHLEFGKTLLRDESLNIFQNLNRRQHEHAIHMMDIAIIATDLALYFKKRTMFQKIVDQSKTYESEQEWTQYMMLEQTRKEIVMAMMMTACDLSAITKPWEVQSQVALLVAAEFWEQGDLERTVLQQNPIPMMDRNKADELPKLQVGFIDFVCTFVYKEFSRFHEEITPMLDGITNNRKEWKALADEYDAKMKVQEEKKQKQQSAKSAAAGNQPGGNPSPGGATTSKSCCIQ
Sequence of human PDE6A/6B (P35913 other isoform, or with tags, fused parts or gaps isoform P35913-2): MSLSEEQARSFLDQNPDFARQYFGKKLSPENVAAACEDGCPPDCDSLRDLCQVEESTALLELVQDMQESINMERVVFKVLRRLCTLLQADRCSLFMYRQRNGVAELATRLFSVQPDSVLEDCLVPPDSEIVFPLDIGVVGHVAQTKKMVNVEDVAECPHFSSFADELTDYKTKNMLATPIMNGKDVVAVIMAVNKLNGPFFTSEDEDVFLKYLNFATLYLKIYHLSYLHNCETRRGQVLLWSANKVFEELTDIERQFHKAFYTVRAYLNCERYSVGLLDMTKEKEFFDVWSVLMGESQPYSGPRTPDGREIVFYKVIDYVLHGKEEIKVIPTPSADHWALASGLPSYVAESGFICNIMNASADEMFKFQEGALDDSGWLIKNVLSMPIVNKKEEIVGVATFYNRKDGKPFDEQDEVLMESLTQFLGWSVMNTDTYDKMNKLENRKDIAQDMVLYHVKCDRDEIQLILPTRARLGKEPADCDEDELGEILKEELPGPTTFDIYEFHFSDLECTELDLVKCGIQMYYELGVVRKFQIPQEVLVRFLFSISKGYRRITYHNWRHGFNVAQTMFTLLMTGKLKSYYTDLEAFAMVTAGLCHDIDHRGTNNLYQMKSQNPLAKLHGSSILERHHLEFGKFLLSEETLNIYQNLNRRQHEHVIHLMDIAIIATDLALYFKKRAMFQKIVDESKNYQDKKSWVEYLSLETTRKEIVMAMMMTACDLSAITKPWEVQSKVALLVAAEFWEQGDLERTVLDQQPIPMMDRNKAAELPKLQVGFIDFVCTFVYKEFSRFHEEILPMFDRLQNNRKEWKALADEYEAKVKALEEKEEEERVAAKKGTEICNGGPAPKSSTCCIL
Sequence of human PDE3A (catalytic domain) (Q14432 641-1141): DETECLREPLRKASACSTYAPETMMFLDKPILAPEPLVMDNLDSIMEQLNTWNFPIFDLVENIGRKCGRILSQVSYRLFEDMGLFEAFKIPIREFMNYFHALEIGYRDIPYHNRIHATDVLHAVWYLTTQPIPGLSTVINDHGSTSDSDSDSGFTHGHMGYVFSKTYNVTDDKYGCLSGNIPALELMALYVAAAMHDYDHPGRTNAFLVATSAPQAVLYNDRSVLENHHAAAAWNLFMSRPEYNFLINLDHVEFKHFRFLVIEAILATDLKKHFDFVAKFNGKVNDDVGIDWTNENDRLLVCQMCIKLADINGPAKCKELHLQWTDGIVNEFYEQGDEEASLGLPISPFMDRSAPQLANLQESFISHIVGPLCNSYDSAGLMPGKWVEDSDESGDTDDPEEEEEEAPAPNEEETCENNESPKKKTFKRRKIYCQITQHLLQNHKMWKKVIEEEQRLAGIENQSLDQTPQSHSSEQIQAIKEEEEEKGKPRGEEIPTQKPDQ

As for `CCCCn1c(=O)c2nnc(C3(C)CC3)n2c2ncc(C)cc21` [Example 6, 5-butyl-3-methyl-9-(1-methylcyclopropyl)pyrido[3,2-e][1,2,4]triazolo[4,3-a]pyrazin-6(5H)-one], the IC50 is 11.6 ± 7.55 nM in test [1]; 15.4 ± 0.0529 nM in test [2]; 2.57 ± 0.544 nM in test [3]; > 100 µM in test [4]; 6010 nM in test [5]; 9.59 µM in test [6].

In the case of `CCCCn1c(=O)c2nnc(C3(C4CC4)CC3)n2c2nc(C)c(C)cc21` [Example 7, 9-([1,1′-Bi(cyclopropan)]-1-yl)-5-butyl-2,3-dimethylpyrido[3,2-e][1,2,4]triazolo[4,3-a]pyrazin-6(5H)-one], the IC50 in test [1] was 0.343 ± 0.765 nM; in test [2] it was 0.4 ± 0.867 nM; in test [3], < 0.5 nM; in test [4], 71.2 µM; in test [5], 3020 nM; in test [6], 1.2 µM.

`CCCCn1c(=O)c2nnc(C3(C)CC3)n2c2ncc(CC)cc21` [Example 8, 5-butyl-3-ethyl-9-(1-methylcyclopropyl)pyrido[3,2-e][1,2,4]triazolo[4,3-a]pyrazin-6(5H)-one]: the IC50 is 8.01 ± 3.55 nM in test [1]; 9.34 ± 4.33 nM in test [2]; 2.14 ± 0.997 nM in test [3]; > 100 µM in test [4]; 957 nM in test [5]; 3.29 µM in test [6].

For the compound `CCCCn1c(=O)c2nnc(C3(C4CC4)CC3)n2c2ncc(C(C)C)cc21` [Example 10, 9-([1,1′-bi(cyclopropan)]-1-yl)-5-butyl-3-isopropylpyrido[3,2-e][1,2,4]triazolo[4,3-a]pyrazin-6(5H)-one], the IC50 is 0.26 ± 0.589 nM in test [1]; 0.396 ± 0.749 nM in test [2]; < 0.5 nM in test [3]; > 100 µM in test [4]; 972 nM in test [5]; 0.611 µM in test [6].

For the compound `CCCCn1c(=O)c2nnc(C3(C)CC3)n2c2ncc(CO)cc21` [Example 12, 5-Butyl-3-(hydroxymethyl)-9-(1-methylcyclopropyl)pyrido[3,2-e][1,2,4]triazolo[4,3-a]pyrazin-6(5H)-one], the IC50 in test [1] was 23 ± 3.62 nM; in test [2], 17.4 ± 10 nM; in test [3] it was 4.02 ± 0.167 nM; in test [4] it was ≥ 93.4 µM; in test [5] it was 5130 ± 2140 nM; in test [6], 3.06 ± 1.45 µM.

Regarding `CCCCn1c(=O)c2nnc(C3(C4CC4)CC3)n2c2nc(C)ccc21` [Example 13, 9-([1,1′-bi(cyclopropan)]-1-yl)-5-butyl-2-methylpyrido[3,2-e][1,2,4]triazolo[4,3-a]pyrazin-6(5H)-one], the IC50 is 0.816 ± 0.198 nM in test [1]; 1.13 ± 0.254 nM in test [2]; < 0.5 nM in test [3]; 19.2 µM in test [4]; 2090 nM in test [5]; 2.99 µM in test [6].
